28 compounds from patent publication US6001880A, “Alkylenediamine derivative, anti-ulcer drug, and antibacterial drug” (Shiseido Co., Ltd., priority 1997, dated 1999) can be followed below.

Series [1] deals with stress ulcer formation in rats. As to the kind of experiment: WIS: Restraint and Water Immersion Stress-Induced Ulcer Inhibition Test. The settings on record: 100 mg/kg oral, 10 minutes before 7 h restraint and water immersion (21° C.). In kind it is in vivo, rat (male Crj:SD or Slc:SD). As to the method:
WIS: Restraint and Water Immersion Stress-Induced Ulcer Inhibition Test
The degree of inhibition of the stress ulcer formation is tested.
Male Crj:SD or Slc:SD rats (6 to 7-week-old) were fasted overnight, but allowed free access to water. Each group has 5 to 8 of these rats. The sample compound was dissolved or suspended in an aqueous solution of 0.3% sodium carboxymethylcellulose or 0.05% Tween 80 and then was orally administered (100 mg/10 ml/kg). To a control group, the vehicle was administered. 10 minutes later, the rats were placed in a stress cage and immersed to the level of xipfoid process in a water bath (21° C.) for 7 hours. At the end of the stress, the rats were sacrificed by inhalation of ether or carbon dioxide. Then, the stomach of each was removed, inflated by injecting 10 ml of 5% formalin neutral buffer solution, and immersed in 1% formalin neutral buffer solution for 30 minutes or more to be fixed. The stomach was incised along the greater curvature and then the length of each erosion in the glandular portion was determined under dissecting microscope. The sum of the length of erosions per stomach was defined as ulcer index (UI).
The effect obtained when 100 mg/kg of the sample compound had been administered was expressed as ulcer formation inhibitory rate (%) as follows:
ulcer formation inhibitory rate (%)=(1-(UI in sample group/UI in control

The subject of series [2] is isolated gastric fundic gland. As to the kind of experiment: CAP: Acid Secretion Inhibition Test In Vitro ([14C]-aminopyrine uptake). It is filed as cell-based, rabbit (male Japanese White). As to conditions: Oryctolagus cuniculus; final concentration 10^-5 M; histamine 10^-5 M stimulation; read-out: CAP: acid secretion inhibitory rate. As to the method: CAP: Acid Secretion Inhibition Test In Vitro
The acid secretion inhibitory activity in a cell level is studied. It can also be used for studying the mechanism of the effect.
First, an isolated gastric fundic gland sample was prepared. Namely, a male Japanese White rabbit (2.5 to 3 kg) was anesthetized to death with Nembutal™ and then the abdomen was incised. Immediately thereafter, the stomach was removed and, after its pyloric and cardiac antrum were severed, incised along its greater curvature into two sheets. The gastric contents adhering to the mucosal surface was washed out with ice-cooled PBS (-) and then carefully washed therein. The gastric wall was spread on a cork board with its mucosal surface facing up and the feed and mucus thereon were completely removed with sterile gauze. The mucosa was separated therefrom by a spatula and then collected in ice-cooled PBS (-). After being washed twice with PBS (-), the mucosa was minced into 2-3 mm^3 pieces by scissors. These pieces were further washed twice with a nutrient solution. The nutrient solution comprises 132.4 mM of NaCl, 5.4 mM of KCl, 5 mM of Na2 HPO4. 12H2 O, 1 mM of NaH2 PO4.2H2 O, 1.2 mM of MgSO4, 1 mM of CaCl2, 25 mM of HEPES, 2 mg/ml of glucose, and 1 mg/ml of BSA.
Into 70 ml of the nutrient solution containing 1 mg/ml of collagenase, minced mucosal pieces were dispersed and intensely stirred in a conical flask with a stirrer at 37° C. for 40 to 60 minutes. During this period, 100% O2 was sprayed on the nutrient solution surface and the pH was appropriately measured such that it was immediately adjusted to pH 7.4, when the value was therebelow, with a base. The nutrient solution was added to the reaction solution so as to attain the total amount of about 200 ml. After being filtered through a mesh, the suspension was divisionally introduced into 50 ml centrifuge tubes and left for 15 minutes such that gastric fundic gland was deposited. The supernatant was repeatedly removed by an aspirator, dispersed in the nutrient solution, and then left such that the gastric fundic gland was washed three times. At this time, without using a pipette, the suspension was alternately introduced into two centrifuge tubes so as to effect dispersion. The number of cells was counted under microscope and adjusted to 1.6×10^6 cells/ml.
Then, [^14 C]-aminopyrine uptake test was performed. After an Eppendorf tube was weighed, 10 μl (final concentration: 10^-5 M) of histamine dissolved in the above-mentioned nutrient solution, 10 μl (final concentration: […]) of the test compound dissolved in DMSO, and 10 μl (final concentration: 0.05 μCi/ml) of [^14 C]-aminopyrine diluted with the nutrient solution were introduced therein and then 970 μl of the isolated gastric fundic gland suspension prepared above was added thereto. Subsequently, this mixture was shaken at 37° C. for 40 minutes at 125 cycles/minute. After being centrifuged for 30 seconds, 200 μl of its supernatant was collected into a mini-vial, while the rest was removed by an aspirator. The gland pellet was completely dried as the tube with its lid being opened was kept for one night in a drying oven at 80° C. and then the lid was closed and the weight was determined at room temperature. Then 100 μl of 1N KOH was added thereto and the tube with its lid being closed was treated at 60° C. for 1 to 2 hours so as to dissolve the pellet. Then, the contents thereof were transferred to a mini-vial. Into the mini-vial containing the supernatant or gland pellet, 4 ml of Atomlite™ was added and then the radioactivity was measured by a liquid scintillation counter. Here, after the radioactivity of the gland pellet was corrected by using a sample in which 20 mM of NaSCN was added so as to cancel the hydrogen ion concentration gradient, the integration ratio of aminopyrine specifically trapped by the gland pellet was calculated. This experiment was performed in duplicate.
Here, its principle will be briefly explained. […]

Series [3] is described as follows: MTT: Cell Damaging and Protecting Effect Test. As to conditions: rabbit, gastric corpus mucosa cells, final concentration 10^-4 M, smaller value is better, read-out: MTT: cell damaging rate. In kind it is cell-based, rabbit (male Japanese White). The source says: MTT: Cell Damaging and Protecting Effect Test
It is confirmed that there is no toxicity in cell level. Those having a toxicity in cell level are inappropriate as an anti-ulcer drug.
A male Japanese White rabbit (2.5 to 3 kg) was anesthetized to death by Nembutal™ and, immediately thereafter, its stomach was removed. The greater curvature of the stomach was incised so as to remove the stomach contents therefrom. After the mucosal surface was washed with HBSS (Hanks' Balanced Salt Solution), the stomach in ice-cooled HBSS was transferred to a laboratory. Then, after the pyloric antrum was removed, the gastric corpus mucosa was separated by a spatula and then minced into 2 to 3 mm^3 pieces in BME (Basal Medium Eagle). Thereafter, these pieces were shaken at 120 to 130 cycles/minute for 15 minutes at 37° C. in BME 60 ml containing 280 U/ml of dispase and 30 to 50 U/ml of collagenase. Here, the concentration of collagenase was appropriately changed for each lot in view of the state of cells. The pieces were washed twice with EBSS (Earle's Balanced Salt Solution) containing 1 mM of EDTA and then shaken in MEM (Minimum Essential Medium) containing 1 mM of EDTA at 37° C. for 5 minutes. Subsequently, they were shaken in the dispase and collagenase having the same concentrations as those mentioned above for 15 minutes so as to remove the supernatant and then further shaken at 37° C. for 50 to 60 minutes at 120 to 130 cycles/minute. Then, after being washed twice with HBSS, Ham F12 containing 2% of Ultrocer G™ was used to attain the concentration of 1×10^6 cells/ml. Thus formed suspension was dispensed in each well of a 96-well plate by 200 μl. The plate was incubated in the atmosphere composed of 5% CO2 and 95% air at 37° C. for three days so as to attain a confluent state and then subjected to MTT assay.
The sample compound was dissolved in DMSO so as to attain a concentration of 10^-2 M and then diluted with HBSS containing 2% of Ultrocer G™ so as to attain a final concentration of 10^-4 M. To each group, which 8 wells were used for, 10 μl of MTT reagent was added immediately after 100 μl of the medium in each well was exchanged for same volume of the resulting solution of the sample compound. After being incubated in an atmosphere composed of 5% CO2 and 95% air at 37° C. for 4 hours, thus formed solution was centrifuged and then its supernatant was discarded. Subsequently, 100 μl of 100% ethanol was added to the residue so as to dissolve MTT formazan. Then, the absorbance (OD: 570 to 630) was measured by a microplate reader. This method utilizes a phenomenon in which MTT is changed to MTT formazan only by mitochondria of living cells so as to change color.
The cell damaging or cell protecting effect of the sample compound at the final concentration of 10^-4 M was expressed as cell damaging rate (%) as follows:
cell damaging rate (%)=(1-(absorbance in sample group/absorbance in control
Accordingly, the smaller value is better in the cell damaging rate.

With `CCN(CC)CCNC(=O)c1cccc(OC/C=C(\C)CCC=C(C)C)c1` [Example 1], the “WIS: ulcer formation inhibitory rate” value in series [1] stood at 72%.

As to `CCN(CC)CCNC(=O)c1ccc(OC/C=C(\C)CCC=C(C)C)cc1` [Example 4], in series [1], the “WIS: ulcer formation inhibitory rate” value is given as 83%.

Consider `CCN(CC)CCNC(=O)c1ccc(OC/C=C(\C)CC/C=C(\C)CCC=C(C)C)cc1` [Example 6], for which the “WIS: ulcer formation inhibitory rate” value in series [1] came out at 52%. Also, the inhibition at 10 µM in series [2] worked out at 97.9%.

Consider `CC(C)=CCC/C(C)=C/COc1ccc(C(=O)NCCN(CC(C)C)CC(C)C)cc1` [Example 9], for which the “WIS: ulcer formation inhibitory rate” value in series [1] is 40%. Also, in series [3], the cytotoxicity at 4 h, 100 µM was found to be 15%.

On to `CC(C)=CCC/C(C)=C/COc1ccc(C(=O)NCCN(C)CC(C)C)cc1` [Example 10], for which the “WIS: ulcer formation inhibitory rate” value in series [1] was determined as 65%.

On to `CCCCN(C)CCNC(=O)c1ccc(OC/C=C(\C)CCC=C(C)C)cc1` [Example 11], for which, in series [1], the “WIS: ulcer formation inhibitory rate” value came out at 45%. Also, the inhibition at 10 µM in series [2] turned out to be 100%.

For the compound `CC(C)=CCC/C(C)=C/COc1ccc(C(=O)NCCN(C)C(C)(C)C)cc1` [Example 12], the “WIS: ulcer formation inhibitory rate” value in series [1] is 34%. Besides, the inhibition at 10 µM in series [2] came to 99.9%.

Regarding `CCN(CC)CCNC(=O)c1ccc(OC/C=C(\C)CCC=C(C)C)c(OC/C=C(\C)CCC=C(C)C)c1` [Example 18], in series [1], the “WIS: ulcer formation inhibitory rate” value is listed as 37%.

With `CCN(CC)CCNC(=O)c1cc(OC/C=C(\C)CCC=C(C)C)cc(OC/C=C(\C)CCC=C(C)C)c1` [Example 19], the “WIS: ulcer formation inhibitory rate” value in series [1] is listed as 69%.

Turning to `CCN(CC)CCNC(=O)c1cc(OCC=C(C)C)c(OCC=C(C)C)c(OCC=C(C)C)c1` [Example 23], the “WIS: ulcer formation inhibitory rate” value in series [1] stood at 81%.

Regarding `CC(C)=CCOc1cc(C(=O)NCCN(C)C)cc(OCC=C(C)C)c1OCC=C(C)C` [Example 24], in series [1], the “WIS: ulcer formation inhibitory rate” value was found to be 70%.

Regarding `CC(C)=CCC/C(C)=C/CNc1ccc(C(=O)NCCN(C(C)C)C(C)C)cc1` [Example 26], the “WIS: ulcer formation inhibitory rate” value in series [1] is 49%. For the same compound, the inhibition at 10 µM in series [2] was determined as 100%.

As for `CC(C)=CCC/C(C)=C/COc1ccc(C(=O)NCCN(C(C)C)C(C)C)cc1CC(C)C` [Example 34], the “WIS: ulcer formation inhibitory rate” value in series [1] was 48%. The inhibition at 10 µM in series [2] came out at 100%.

Take `CCN(CC)CCNC(=O)c1cc(OC)c(OCC=C(C)C)c(OC)c1` [Example 36]: in series [1], the “WIS: ulcer formation inhibitory rate” value turned out to be 88%.

As for `CCN(CC)CCNC(=O)c1cc(OC)c(OC)c(OCC=C(C)C)c1` [Example 40], the “WIS: ulcer formation inhibitory rate” value in series [1] is listed as 79%. Moreover, the cytotoxicity at 4 h, 100 µM in series [3] is -2%.

Take `COc1cc(C(=O)NCCN(C)C)cc(OC)c1OC/C=C(\C)CCC=C(C)C` [Example 43]: the “WIS: ulcer formation inhibitory rate” value in series [1] came out at 88%. The cytotoxicity at 4 h, 100 µM in series [3] was found to be 1%.

Take `CC(C)=CCOc1ccc(C(=O)NCCN(C)C)cn1` [Example 44]: the “WIS: ulcer formation inhibitory rate” value in series [1] was found to be 30%.

Regarding `CC(C)=CCOc1ncccc1C(=O)NCCN(C)C` [Example 45], the “WIS: ulcer formation inhibitory rate” value in series [1] came to 41%.

On to `CCN(CC)CCNC(=O)c1cccnc1OCC=C(C)C` [Example 47], for which the “WIS: ulcer formation inhibitory rate” value in series [1] was found to be 80%.

Regarding `CC(C)=CCC/C(C)=C/COc1ccc(C(=O)NCCN(C)C)cn1` [Example 49], in series [1], the “WIS: ulcer formation inhibitory rate” value is reported as 38%.

In the case of `CCN(CC)CCNC(=O)c1cccnc1OC/C=C(\C)CCC=C(C)C` [Example 52], the “WIS: ulcer formation inhibitory rate” value in series [1] is recorded as 57%. In addition, the inhibition at 10 µM in series [2] came to 101%.

Regarding `CC(C)=CCOc1cccnc1C(=O)NCCN(C)C` [Example 53], the “WIS: ulcer formation inhibitory rate” value in series [1] came to 67%. The cytotoxicity at 4 h, 100 µM in series [3] is 1%.

For the compound `CCN(CC)CCNC(=O)c1ncccc1OCC=C(C)C` [Example 54], in series [1], the “WIS: ulcer formation inhibitory rate” value was determined as 78%. Moreover, in series [3], the cytotoxicity at 4 h, 100 µM is -10%.

Regarding `CC(C)=CCOc1cccnc1C(=O)NCCN(C(C)C)C(C)C` [Example 55], the “WIS: ulcer formation inhibitory rate” value in series [1] was 97%. Moreover, in series [3], the cytotoxicity at 4 h, 100 µM was determined as 20%.

For the compound `CC(C)COc1ccc(C(=O)NCCN(C(C)C)C(C)C)cc1` [Example 60], the “WIS: ulcer formation inhibitory rate” value in series [1] is 98%. Further, in series [2], the inhibition at 10 µM was 97.3%.

Regarding `CC(C)N(CCNC(=O)c1ccc(C(C)(C)C)cc1)C(C)C` [Example 61], in series [1], the “WIS: ulcer formation inhibitory rate” value amounted to 94%. Besides, the inhibition at 10 µM in series [2] was 97.3%.

On to `CCCCCCCCc1ccc(C(=O)NCCN(C(C)C)C(C)C)cc1` [Example 63], for which the “WIS: ulcer formation inhibitory rate” value in series [1] was found to be 49%. In addition, the inhibition at 10 µM in series [2] came to 101%.

On to `CC(C)N(CCNC(=O)c1ccc(N(C)C)cc1)C(C)C` [Example 70], for which the “WIS: ulcer formation inhibitory rate” value in series [1] stood at 66%. Besides, the inhibition at 10 µM in series [2] turned out to be 101%.
